# Laboratory results published in ChEMBL document CHEMBL5046228 (Eur J Med Chem, 2022).
# How the values were obtained:
# NCI-H1975 [1] = assay: Induction of apoptosis in human NCI-H1975 cells assessed as increase in necrotic cells at 0.1 uM after 36 hrs by annexin-V-FITC/PI staining based flow cytometric analysis (reference value: 0.35%); type: functional
# NCI-H1299 [2] = assay: Induction of cell cycle arrest in human NCI-H1299 cells assessed as accumulation at G2/M phase at 0.5 uM after 36 hrs by PI staining based flow cytometry analysis (reference value: 5.6%); type: functional
# NCI-H1975 [3] = assay: Induction of cell cycle arrest in human NCI-H1975 cells assessed as accumulation at G2/M phase at 2.5 uM after 36 hrs by PI staining based flow cytometry analysis (reference value: 43.1%); type: functional
# NCI-H1975 [4] = assay: Induction of apoptosis in human NCI-H1975 cells assessed as increase in necrotic cells at 2.5 uM after 36 hrs by annexin-V-FITC/PI staining based flow cytometric analysis (reference value: 0.35%); type: functional
# NCI-H1975 [5] = assay: Induction of cell cycle arrest in human NCI-H1975 cells assessed as accumulation at S phase at 0.02 uM after 36 hrs by PI staining based flow cytometry analysis (reference value: 32.7 %); type: functional
# [6] = molecular target: Epidermal growth factor receptor (Homo sapiens, UniProt P00533, EX19DEL); assay: Inhibition of EGFR del19 (unknown origin) using flurogenic substrate in presence of ATP by HTRF assay
# NCI-H1975 [7] = assay: Induction of apoptosis in human NCI-H1975 cells assessed as increase in necrotic cells at 0.5 uM after 36 hrs by annexin-V-FITC/PI staining based flow cytometric analysis (reference value: 0.35%); type: functional
# NCI-H1975 [8] = assay: Induction of cell cycle arrest in human NCI-H1975 cells assessed as accumulation at G2/M phase at 0.02 uM after 36 hrs by PI staining based flow cytometry analysis (reference value: 43.1%); type: functional
# NCI-H1299 [9] = assay: Induction of apoptosis in human NCI-H1299 cells assessed as increase in necrotic cells at 0.5 uM after 36 hrs by annexin-V-FITC/PI staining based flow cytometric analysis (reference value: 0.75%); type: functional
# NCI-H1299 [10] = assay: Induction of apoptosis in human NCI-H1299 cells assessed as increase in early apoptotic cells at 2.5 uM after 36 hrs by annexin-V-FITC/PI staining based flow cytometric analysis (reference value: 0.79%); type: functional
# NCI-H1975 [11] = assay: Induction of cell cycle arrest in human NCI-H1975 cells assessed as accumulation at G0/G1 phase at 0.1 uM after 36 hrs by PI staining based flow cytometry analysis (reference value: 24.2%); type: functional
# NCI-H1299 [12] = assay: Induction of cell cycle arrest in human NCI-H1299 cells assessed as accumulation at G2/M phase at 0.1 uM after 36 hrs by PI staining based flow cytometry analysis (reference value: 5.6%); type: functional
# NCI-H1975 [13] = assay: Induction of apoptosis in human NCI-H1975 cells assessed as increase in early apoptotic cells at 0.1 uM after 36 hrs by annexin-V-FITC/PI staining based flow cytometric analysis (reference value: 1.24%); type: functional
# NCI-H1975 [14] = assay: Induction of apoptosis in human NCI-H1975 cells assessed as increase in early apoptotic cells at 0.5 uM after 36 hrs by annexin-V-FITC/PI staining based flow cytometric analysis (reference value: 1.24%); type: functional
# NCI-H1299 [15] = assay: Induction of cell cycle arrest in human NCI-H1299 cells assessed as accumulation at G2/M phase at 2.5 uM after 36 hrs by PI staining based flow cytometry analysis (reference value: 5.6%); type: functional
# NCI-H1975 [16] = assay: Induction of cell cycle arrest in human NCI-H1975 cells assessed as accumulation at G2/M phase at 0.1 uM after 36 hrs by PI staining based flow cytometry analysis (reference value: 43.1%); type: functional
# NCI-H1299 [17] = assay: Induction of cell cycle arrest in human NCI-H1299 cells assessed as accumulation at S phase at 0.5 uM after 36 hrs by PI staining based flow cytometry analysis (reference value: 24.8%); type: functional
# NCI-H1299 [18] = assay: Induction of apoptosis in human NCI-H1299 cells assessed as increase in viable cells at 0.5 uM after 36 hrs by annexin-V-FITC/PI staining based flow cytometric analysis (reference value: 94.1%); type: functional
# NCI-H1975 [19] = assay: Induction of apoptosis in human NCI-H1975 cells assessed as increase in late apoptotic cells at 0.1 uM after 36 hrs by annexin-V-FITC/PI staining based flow cytometric analysis (reference value: 3.85%); type: functional
# [20] = molecular target: Epidermal growth factor receptor (Homo sapiens, UniProt P00533, C797S/T790M); assay: Inhibition of EGFR T790M/C797S double mutant (unknown origin) using flurogenic substrate in presence of ATP by HTRF assay
# in vitro = conditions: human
# NCI-H1299 [21] = assay: Induction of apoptosis in human NCI-H1299 cells assessed as increase in necrotic cells at 2.5 uM after 36 hrs by annexin-V-FITC/PI staining based flow cytometric analysis (reference value: 0.75%); type: functional
# NCI-H1299 [22] = assay: Induction of apoptosis in human NCI-H1299 cells assessed as increase in viable cells at 0.1 uM after 36 hrs by annexin-V-FITC/PI staining based flow cytometric analysis (reference value: 94.1%); type: functional
# NCI-H1299 [23] = assay: Induction of apoptosis in human NCI-H1299 cells assessed as increase in late apoptotic cells at 0.5 uM after 36 hrs by annexin-V-FITC/PI staining based flow cytometric analysis (reference value: 4.39%); type: functional
# NCI-H1299 [24] = assay: Induction of apoptosis in human NCI-H1299 cells assessed as increase in viable cells at 0.02 uM after 36 hrs by annexin-V-FITC/PI staining based flow cytometric analysis (reference value: 94.1%); type: functional
# NCI-H1299 [25] = assay: Induction of cell cycle arrest in human NCI-H1299 cells assessed as accumulation at S phase at 0.02 uM after 36 hrs by PI staining based flow cytometry analysis (reference value: 24.8%); type: functional
# NCI-H1299 [26] = assay: Induction of cell cycle arrest in human NCI-H1299 cells assessed as accumulation at S phase at 2.5 uM after 36 hrs by PI staining based flow cytometry analysis (reference value: 24.8%); type: functional
# NCI-H1299 [27] = assay: Induction of apoptosis in human NCI-H1299 cells assessed as increase in early apoptotic cells at 0.5 uM after 36 hrs by annexin-V-FITC/PI staining based flow cytometric analysis (reference value: 0.79%); type: functional
# NCI-H1975 [28] = assay: Induction of cell cycle arrest in human NCI-H1975 cells assessed as accumulation at S phase at 0.1 uM after 36 hrs by PI staining based flow cytometry analysis (reference value: 32.7 %); type: functional
# NCI-H1299 [29] = assay: Induction of apoptosis in human NCI-H1299 cells assessed as increase in early apoptotic cells at 0.02 uM after 36 hrs by annexin-V-FITC/PI staining based flow cytometric analysis (reference value: 0.79%); type: functional
# NCI-H1299 [30] = assay: Induction of cell cycle arrest in human NCI-H1299 cells assessed as accumulation at G0/G1 phase at 0.1 uM after 36 hrs by PI staining based flow cytometry analysis (reference value: 70.2%); type: functional
# NCI-H1299 [31] = assay: Antiproliferative activity against human NCI-H1299 cells expressing wild type EGFR assessed as inhibition in cell viability after 72 hrs by CCK8 assay; type: functional, cell-based; conditions: NCI-H1299, 72 h
# Epidermal growth factor receptor (Homo sapiens, UniProt P00533, C797S/T790M), sequence (P00533 25-1210 T790M/C797S limits assumed): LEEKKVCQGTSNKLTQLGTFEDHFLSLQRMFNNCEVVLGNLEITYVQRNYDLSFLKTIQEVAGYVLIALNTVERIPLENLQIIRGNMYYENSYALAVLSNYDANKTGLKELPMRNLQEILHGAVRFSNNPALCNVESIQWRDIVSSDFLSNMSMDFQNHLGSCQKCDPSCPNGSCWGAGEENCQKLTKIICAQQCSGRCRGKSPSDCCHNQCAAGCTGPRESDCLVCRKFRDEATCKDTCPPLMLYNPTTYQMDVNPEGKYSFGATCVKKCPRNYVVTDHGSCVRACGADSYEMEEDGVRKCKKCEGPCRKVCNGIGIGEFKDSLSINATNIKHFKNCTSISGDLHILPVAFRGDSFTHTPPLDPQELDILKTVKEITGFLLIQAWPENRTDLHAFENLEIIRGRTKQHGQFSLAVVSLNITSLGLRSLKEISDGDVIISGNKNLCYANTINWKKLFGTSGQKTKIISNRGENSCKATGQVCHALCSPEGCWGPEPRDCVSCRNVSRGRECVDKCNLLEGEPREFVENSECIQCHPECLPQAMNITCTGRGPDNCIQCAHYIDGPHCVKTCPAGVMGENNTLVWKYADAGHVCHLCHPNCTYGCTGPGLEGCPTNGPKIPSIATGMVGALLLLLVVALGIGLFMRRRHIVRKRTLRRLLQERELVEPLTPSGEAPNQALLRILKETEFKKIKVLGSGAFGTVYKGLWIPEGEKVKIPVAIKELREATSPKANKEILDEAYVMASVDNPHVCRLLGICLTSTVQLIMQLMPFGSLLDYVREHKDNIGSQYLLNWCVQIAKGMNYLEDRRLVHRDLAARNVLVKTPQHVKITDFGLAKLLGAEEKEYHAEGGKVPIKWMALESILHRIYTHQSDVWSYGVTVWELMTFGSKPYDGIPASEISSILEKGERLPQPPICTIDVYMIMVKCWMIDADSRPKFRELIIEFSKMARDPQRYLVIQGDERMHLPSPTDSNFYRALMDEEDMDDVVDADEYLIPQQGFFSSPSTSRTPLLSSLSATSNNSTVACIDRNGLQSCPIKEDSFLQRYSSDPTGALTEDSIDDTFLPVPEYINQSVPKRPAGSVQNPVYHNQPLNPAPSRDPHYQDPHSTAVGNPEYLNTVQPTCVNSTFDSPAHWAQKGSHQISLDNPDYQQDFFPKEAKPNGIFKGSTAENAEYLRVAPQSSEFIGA
# Epidermal growth factor receptor (Homo sapiens, UniProt P00533, EX19DEL), sequence (P00533 whole entry, looked up, stated change not applied): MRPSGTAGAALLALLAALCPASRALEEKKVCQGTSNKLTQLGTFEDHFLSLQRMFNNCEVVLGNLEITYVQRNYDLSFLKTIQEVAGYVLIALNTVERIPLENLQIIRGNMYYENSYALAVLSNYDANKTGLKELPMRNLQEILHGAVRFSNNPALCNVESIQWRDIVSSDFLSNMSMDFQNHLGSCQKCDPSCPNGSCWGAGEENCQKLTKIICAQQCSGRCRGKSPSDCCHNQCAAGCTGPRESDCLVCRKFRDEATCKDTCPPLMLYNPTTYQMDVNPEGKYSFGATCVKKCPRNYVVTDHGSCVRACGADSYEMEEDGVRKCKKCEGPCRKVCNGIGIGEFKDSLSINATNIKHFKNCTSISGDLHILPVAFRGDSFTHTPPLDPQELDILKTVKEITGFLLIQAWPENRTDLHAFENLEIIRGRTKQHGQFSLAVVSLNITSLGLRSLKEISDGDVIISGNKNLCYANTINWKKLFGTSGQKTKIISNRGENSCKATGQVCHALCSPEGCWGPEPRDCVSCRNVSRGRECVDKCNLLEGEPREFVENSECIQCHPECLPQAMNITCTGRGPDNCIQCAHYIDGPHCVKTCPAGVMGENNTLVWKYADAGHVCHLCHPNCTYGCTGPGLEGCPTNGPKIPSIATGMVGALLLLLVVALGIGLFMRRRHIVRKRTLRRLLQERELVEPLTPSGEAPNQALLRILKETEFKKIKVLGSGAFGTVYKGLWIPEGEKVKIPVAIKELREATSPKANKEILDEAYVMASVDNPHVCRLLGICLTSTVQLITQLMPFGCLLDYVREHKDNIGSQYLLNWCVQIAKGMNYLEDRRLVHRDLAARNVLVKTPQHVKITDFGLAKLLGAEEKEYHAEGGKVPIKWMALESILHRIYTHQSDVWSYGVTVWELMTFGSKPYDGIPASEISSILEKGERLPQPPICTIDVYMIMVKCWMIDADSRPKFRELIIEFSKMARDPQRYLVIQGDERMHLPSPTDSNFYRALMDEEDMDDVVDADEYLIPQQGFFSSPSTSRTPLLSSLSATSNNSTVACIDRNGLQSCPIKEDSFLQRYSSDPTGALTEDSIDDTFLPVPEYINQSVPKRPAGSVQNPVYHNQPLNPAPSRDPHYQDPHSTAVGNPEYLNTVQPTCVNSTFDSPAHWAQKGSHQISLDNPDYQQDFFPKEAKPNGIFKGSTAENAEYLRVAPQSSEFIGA
compound,measurement,setting,value
C#CCN(C)CCN(C)c1cc(OC)c(Nc2nccc(Nc3cn(C)c4ccccc34)n2)cc1NC(=O)C=C,Activity,NCI-H1975 [1],0.019%
same,Activity,NCI-H1299 [2],6%
same,Activity,NCI-H1975 [3],64.6%
same,Activity,NCI-H1975 [4],0.012%
same,Activity,NCI-H1975 [5],27.3%
same,IC50,[6],9.57 nM
same,Activity,NCI-H1975 [7],0.021%
same,Activity,NCI-H1975 [8],50.2%
same,Activity,NCI-H1299 [9],0.77%
same,Activity,NCI-H1299 [10],0.95%
same,Activity,NCI-H1975 [11],19.1%
same,Activity,NCI-H1299 [12],5.7%
same,Activity,NCI-H1975 [13],4.45%
same,Activity,NCI-H1975 [14],12.2%
same,Activity,NCI-H1299 [15],7.8%
same,Activity,NCI-H1975 [16],58.2%
same,Activity,NCI-H1299 [17],25.6%
same,Activity,NCI-H1299 [18],92.6%
same,Activity,NCI-H1975 [19],3.3%
same,IC50,[20],4.01 nM
same,selectivity ratio,in vitro,27500
same,Activity,NCI-H1299 [21],0.6%
same,Activity,NCI-H1299 [22],92.6%
same,Activity,NCI-H1299 [23],5.63%
same,Activity,NCI-H1299 [24],93.1%
same,Activity,NCI-H1299 [25],23.8%
same,Activity,NCI-H1299 [26],24.7%
same,Activity,NCI-H1299 [27],1.01%
same,Activity,NCI-H1975 [28],22.7%
same,Activity,NCI-H1299 [29],1.05%
same,Activity,NCI-H1299 [30],70.6%
same,IC50,NCI-H1299 [31],> 100000 nM
